This is an account of results in patent publication US20110077248A1, “IMIDAZOPYRIDINE AND RELATED ANALOGS AS SIRTUIN MODULATORS” (Sirtris Pharmaceuticals, Inc., priority 2008, published 2011).

As usually defined, the Emax is the greatest response seen or fitted, relative to the assay's reference.

This assay addresses T1, SIRT1 (Homo sapiens, UniProt Q96EB6).
T1 construct: His-tag (N); made in house; host or cells: E. coli BL21(DE3), T7-promoter vector
T1 sequence (Q96EB6 1-747): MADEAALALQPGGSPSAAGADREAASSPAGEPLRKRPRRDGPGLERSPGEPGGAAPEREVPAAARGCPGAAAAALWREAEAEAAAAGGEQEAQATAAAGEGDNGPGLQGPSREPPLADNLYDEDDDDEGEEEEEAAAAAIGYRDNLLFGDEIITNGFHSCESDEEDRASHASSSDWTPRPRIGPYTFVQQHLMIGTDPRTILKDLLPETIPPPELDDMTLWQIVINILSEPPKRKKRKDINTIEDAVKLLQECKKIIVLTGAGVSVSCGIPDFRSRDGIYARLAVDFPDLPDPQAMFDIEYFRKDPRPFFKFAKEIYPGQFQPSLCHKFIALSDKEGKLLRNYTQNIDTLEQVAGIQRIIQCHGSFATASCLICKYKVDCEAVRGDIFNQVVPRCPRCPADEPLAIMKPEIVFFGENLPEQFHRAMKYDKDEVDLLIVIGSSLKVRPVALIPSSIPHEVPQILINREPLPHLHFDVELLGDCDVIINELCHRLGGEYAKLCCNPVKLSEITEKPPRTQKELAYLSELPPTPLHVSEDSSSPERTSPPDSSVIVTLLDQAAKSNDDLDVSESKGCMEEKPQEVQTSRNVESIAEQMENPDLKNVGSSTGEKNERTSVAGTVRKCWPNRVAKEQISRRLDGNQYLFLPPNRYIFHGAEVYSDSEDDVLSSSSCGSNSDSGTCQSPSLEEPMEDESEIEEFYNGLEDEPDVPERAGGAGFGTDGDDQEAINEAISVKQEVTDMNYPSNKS
Briefly: Mass spectrometry based assay for modulators of SIRT1 activity (deacetylation of p53-based acetylated peptide). As to conditions: for EC1.5: concentration of test compound that results in 150% activation of SIRT1, 0.5 μM peptide substrate, 120 μM βNAD+, 10 nM SIRT1, 25 min, 25° C.; for Emax: percent maximum fold activation of SIRT1. The assay is classed as biochemical. The method in brief: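 Reaction: 10 nM His-tagged human SIRT1 (E. coli-expressed) with 0.5 μM 5TMR-labelled acetylated p53-derived peptide and 120 μM NAD+, 25 min at 25 °C, pH 8 Tris-acetate buffer; formic acid quench. Deacetylation quantified by mass spectrometry against a DMSO control; EC1.5 = concentration giving 150% activation.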

Molecules are shown by their SMILES. A value given as a limit tells only on which side of the number the result lay.

As to `O=C(Nc1cccn2cc(-c3cccc(OC(F)(F)F)c3)nc12)c1cnccn1` [Compound 105], the EC1.5 result was “C (EC1.5>25 uM)” and the Emax was below 200%.
With `O=C(Nc1cccnn1)c1nccn2cc(-c3ccc(F)cc3C(F)(F)F)nc12` [Compound 191], the EC1.5 result was “B (EC1.5 1-25 uM)” and the Emax was above 200%.
In the same order, the values of `Cc1cc(-c2nc3c(C(=O)Nc4nc(CN5CCOCC5)cs4)cccn3n2)ccn1` [Compound 216] are “B (EC1.5 1-25 uM)” and above 200%.
With `O=C(Nc1cnccn1)c1nccn2cc(-c3ccccc3C(F)(F)F)nc12` [Compound 176], the EC1.5 entry is “B (EC1.5 1-25 uM)” and the Emax is above 200%.
In the same order, the values of `O=C(Nc1nccs1)c1cccn2cc(-c3cccc(OC(F)(F)F)c3)nc12` [Compound 115, N-(thiazol-2-yl)-2-(3-(trifluoromethoxy)phenyl)imidazo[1,2-a]pyridine-8-carboxamide] are “B (EC1.5 1-25 uM)” and below 200%.
As for `O=C(Nc1nccs1)c1cccn2cc(-c3cccc(C(F)F)c3)nc12` [Compound 206], the EC1.5 entry is “B (EC1.5 1-25 uM)” and the Emax is below 200%.
Regarding `O=C(Nc1nccs1)c1cccn2nc(-c3ccc(OCCN4CCOCC4)cc3C(F)F)nc12` [Compound 265, 2-(2-(difluoromethyl)-4-(2-morpholinoethoxy)phenyl)-N-(thiazol-2-yl)-[1,2,4]triazolo[1,5-a]pyridine-8-carboxamide], the EC1.5 result is recorded as “B (EC1.5 1-25 uM)” and the Emax is below 200%.
In the same order, the values of `O=C(Nc1ccccn1)c1cccn2cc(-c3ccc(F)cc3)nc12` [Compound 157] are “B (EC1.5 1-25 uM)” and below 200%.
On to `O=C(Nc1cccc(CN2CCOCC2)n1)c1nccn2cc(-c3cccc(OC(F)(F)F)c3)nc12` [Compound 158], for which the EC1.5 result was “A (EC1.5<1.0 uM)” and the Emax is above 200%.
In the case of `O=C(Nc1cccn2cc(-c3ccccc3)nc12)c1cscn1` [Compound 101], the EC1.5 entry is “B (EC1.5 1-25 uM)” and the Emax is below 200%.
`O=C(Nc1cccc(CN2CCOCC2)n1)c1cccn2nc(-c3cccc(C(F)(F)F)c3)nc12` [Compound 178]: the EC1.5 result is on record as “B (EC1.5 1-25 uM)” and the Emax was above 200%.
Turning to `O=C(Nc1nccs1)c1cccn2cc(-c3ccc(N4CCCC4)cc3)nc12` [Compound 166], the EC1.5 result is “C (EC1.5>25 uM)” and the Emax is below 200%.
For the molecule `O=C(Nc1ccccn1)c1cccn2cc(-c3ccccc3C(F)(F)F)nc12` [Compound 149], the EC1.5 result was “B (EC1.5 1-25 uM)” and the Emax was above 200%.
Consider `O=C(Nc1ccccn1)c1cccn2cc(-c3ccc(C(F)F)cc3)nc12` [Compound 203], for which the EC1.5 entry is reported as “C (EC1.5>25 uM)” and the maximal response (Emax) was below 200%.
In the case of `Cc1nc(C)c(-c2nc3c(C(=O)Nc4nccs4)cccn3n2)s1` [Compound 229], the EC1.5 result is listed as “C (EC1.5>25 uM)” and the Emax is below 200%.
Turning to `O=C(Nc1cccn2cc(-c3cccc(-c4ccccc4)c3)nc12)c1ccncc1` [Compound 124], the EC1.5 result was “C (EC1.5>25 uM)” and the Emax was below 200%.
`Cc1ccc(-c2nc3c(C(=O)Nc4ccccn4)cccn3n2)cn1` [Compound 211]: the EC1.5 entry was “C (EC1.5>25 uM)” and the Emax is below 200%.
